According to the OligoGym collection:
Several values for one entry are separate records, joined by “and”; a condition that tells them apart may be missing. Identical values can stand only once. After the bases stand the sugars from the 5' end (letter, count) and the backbone: PS all phosphorothioate, else s phosphorothioate and o phosphodiester by linkage. Methylation of C is not given here. e = 2'-O-(2-methoxyethyl) (MOE); d = 2'-deoxy (DNA)

Biological target: DGAT2
Details: ASO

Sequence	target mRNA inhibition (HepG2, 0.12 µM)	target mRNA inhibition (HepG2, 2.5 µM)	target mRNA inhibition (HepG2, 10 µM)	target mRNA inhibition (HepG2, 20 µM)
GGATGGTGATGGGCTCTCCC (sugars e5 d10 e5, PS)	67%			
AGGCATGCTTCCTCCCACTT (sugars e5 d10 e5, PS)		53%	85%	
AATTTCTTTTAAATAACCCA (sugars e5 d10 e5, PS)	0%			
CCCCCATCCTCATCCTGGAG (sugars e5 d10 e5, PS)	7%			
GCCAGGCCCCTTCTGAAGAG (sugars e5 d10 e5, PS)	36%			
GCCAGGTAAGGCCGTATGCC (sugars e2 d13 e5, PS)	66%			
GCCTGGACAAGTCCTGCCCA (sugars e5 d10 e5, PS)	70% and 86%			81% and 88%
TGTGACCTTGGGATAGTCCC (sugars e5 d10 e5, PS)		63%	87%	
ACAGGACCCACTGGAGCACT (sugars e2 d13 e5, PS)	68%			
GCGACAGCCCTGTGCCAGCC (sugars e5 d10 e5, PS)		72%	99%	
CAGGGTCCTCTCCGCTGCCT (sugars e5 d10 e5, PS)		78% and 80%	85% and 87%	
GGACCCACTGGAGCACTGAG (sugars e3 d14 e3, PS)	82%	29%	42%	71%
CAGCAGGTTGTGTGTCTTCA (sugars e2 d13 e5, PS)	57%			
CCATGTCAGAGAGGCTCAGC (sugars e5 d10 e5, PS)		45%	86%	
CCTAGGTACAAGTTTCTCCA (sugars e5 d10 e5, PS)		65%	87%	
GACTTGCCCAGCAACCCATC (sugars e5 d10 e5, PS)		77%	54%	
GCGCAGGACCCCGGAGTAGG (sugars e3 d14 e3, PS)	71%			
GAAGGCACCCAGGCCCATGA (sugars e5 d10 e5, PS)	38%			
CTGCACTCTCTCTGCACACT (sugars e5 d10 e5, PS)		65% and 83%	81% and 90%	
AAGATTCATAACTATATCTA (sugars e5 d10 e5, PS)	6%			
CAGTTTCGGACCCACTGTGA (sugars e2 d13 e5, PS)	77%			

Sequence	target mRNA inhibition (HepG2, 0.12 µM)	target mRNA inhibition (HepG2, 2.5 µM)	target mRNA inhibition (HepG2, 10 µM)	target mRNA inhibition (HepG2, 20 µM)
GACCCACTGGAGCACTGAGA (sugars e3 d14 e3, PS)	56%			
TCTTCTGGACCCATCGGCCC (sugars e5 d10 e5, PS)	37%			
TCTCATTTCTTATCTTCAAT (sugars e5 d10 e5, PS)		60% and 72%	88% and 93%	
GCGATTCACTGAGGACC (sugars e3 d10 e4, PS)			68% and 86%	
GGAGCTCAGAGACTCAGCCG (sugars e5 d10 e5, PS)	73%			
TTTAGGCTATGGTCTGAGCA (sugars e5 d10 e5, PS)		68% and 55%	85% and 78%	
CCTCTTAGAAGTAATGCTTC (sugars e5 d10 e5, PS)		83% and 78%	92% and 90%	
AGTAGTCTCGAAAGTAGCGC (sugars e5 d10 e5, PS)	39%			
CAGGACCCACTGGAGCACTG (sugars e3 d14 e3, PS)	71%			
CCCACTGGAGCACTGAGATG (sugars e2 d13 e5, PS)	70%			
TGCAGCCTACAAGAGCCTGT (sugars e5 d10 e5, PS)		54%	90%	
TGGCCTGGATGGCAACCTAA (sugars e5 d10 e5, PS)		46%	83%	
TATGCCTGGGAACTTCTTGC (sugars e5 d10 e5, PS)	26%			
TAGAGCACTTGATCTGGGAC (sugars e5 d10 e5, PS)		38% and 46%	81% and 85%	
TTCTGGACCCATCGGCCCCA (sugars e5 d10 e5, PS)	27%			
TTGGATAGTCGATTTACCAG (sugars e5 d10 e5, PS)		62%	92%	
GGACCCACTGGAGCACTGAG (sugars e2 d13 e5, PS)	86%	24%	28%	67%
TCAGCAGGTTGTGTGTCTTC (sugars e2 d13 e5, PS)	57%			
TCAAACCTAGGTTCAGACTT (sugars e5 d10 e5, PS)	47%			
CTCAGAGACTCAGCCGCACC (sugars e5 d10 e5, PS)	80%	30%	91%	54%
CAGCACTGACATGGTAAGTC (sugars e5 d10 e5, PS)		79% and 69%	92% and 97%	
